Assay results published in the supplement of paper PMC10307832.

Columns and labels:
Assay in all cases: relative viability (nuclei count vs DMSO), 5 days (fraction); higher = more cells survive
AZ628 + Alpelisib = compound: CC1=C(C=C(C=C1)NC(=O)C2=CC(=CC=C2)C(C)(C)C#N)NC3=CC4=C(C=C3)N=CN(C4=O)C [AZ628] + Cc1nc(NC(=O)N2CCC[C@H]2C(N)=O)sc1-c1ccnc(C(C)(C)C(F)(F)F)c1 [Alpelisib] (partner 2 µM)
How it was run: (§1)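 Each reported value is a median over duplicate plates. It expresses relative viability: treated-well nuclei count divided by vehicle-well nuclei count. Lung cancer cell lines in 1536-well plates were dosed by pin tool a day after seeding, alone with one drug or with a fixed anchor-drug dose plus five library-drug doses (not always all listed) in √10 steps, and nuclei were counted after 5 days.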

QS11 + Linsitinib = compound: C1CC2=C(C1)C=C(C=C2)OC3=NC(=C4C(=N3)N(C=N4)CC5=CC=C(C=C5)C6=CC=CC=C6)N[C@@H](CC7=CC=CC=C7)CO [QS11] + C[C@]1(O)C[C@@H](c2nc(-c3ccc4ccc(-c5ccccc5)nc4c3)c3c(N)nccn32)C1 [Linsitinib] (partner 1 µM)
How it was run: as §1

QS11 + Olaparib = compound: C1CC2=C(C1)C=C(C=C2)OC3=NC(=C4C(=N3)N(C=N4)CC5=CC=C(C=C5)C6=CC=CC=C6)N[C@@H](CC7=CC=CC=C7)CO [QS11] + O=C(c1cc(Cc2n[nH]c(=O)c3ccccc23)ccc1F)N1CCN(C(=O)C2CC2)CC1 [Olaparib] (partner 8 µM)
How it was run: as §1

AZ628 + Dasatinib = compound: CC1=C(C=C(C=C1)NC(=O)C2=CC(=CC=C2)C(C)(C)C#N)NC3=CC4=C(C=C3)N=CN(C4=O)C [AZ628] + Cc1nc(Nc2ncc(C(=O)Nc3c(C)cccc3Cl)s2)cc(N2CCN(CCO)CC2)n1 [Dasatinib] (partner 0.075 µM)
How it was run: as §1

| Cell Line | relative viability (AZ628 + Alpelisib; first compound 0.08 µM) | relative viability (AZ628 + Alpelisib; first compound 0.253 µM) | relative viability (AZ628 + Alpelisib; first compound 0.8 µM) | relative viability (AZ628 + Alpelisib; first compound 2.53 µM) | relative viability (AZ628 + Alpelisib; first compound 8 µM) | relative viability (QS11 + Linsitinib; first compound 0.08 µM) | relative viability (QS11 + Linsitinib; first compound 0.253 µM) | relative viability (QS11 + Linsitinib; first compound 0.8 µM) | relative viability (QS11 + Linsitinib; first compound 2.53 µM) | relative viability (QS11 + Linsitinib; first compound 8 µM) | relative viability (QS11 + Olaparib; first compound 0.08 µM) | relative viability (QS11 + Olaparib; first compound 0.253 µM) | relative viability (QS11 + Olaparib; first compound 0.8 µM) | relative viability (QS11 + Olaparib; first compound 2.53 µM) | relative viability (QS11 + Olaparib; first compound 8 µM) | relative viability (AZ628 + Dasatinib; first compound 0.08 µM) | relative viability (AZ628 + Dasatinib; first compound 0.253 µM) | relative viability (AZ628 + Dasatinib; first compound 0.8 µM) | relative viability (AZ628 + Dasatinib; first compound 2.53 µM) | relative viability (AZ628 + Dasatinib; first compound 8 µM) |
| --- | --- | --- | --- | --- | --- | --- | --- | --- | --- | --- | --- | --- | --- | --- | --- | --- | --- | --- | --- | --- |
| NCI-H1355 | 0.849 | 0.742 | 0.737 | 0.685 | 0.558 | 0.762 | 0.791 | 0.671 | 0.84 | 0.712 | 0.624 | 0.732 | 0.693 | 0.678 | 0.75 | 0.723 | 0.663 | 0.611 | 0.626 | 0.458 |
| NCI-H2405 | 0.313 | 0.447 | 0.444 | 0.352 | 0.406 | 0.893 | 0.925 | 0.946 | 0.942 | 1.17 | 0.847 | 0.803 | 0.768 | 0.961 | 0.83 | 0.175 | 0.201 | 0.189 | 0.172 | 0.23 |
| NCI-H2023 | 0.653 | 0.558 | 0.617 | 0.688 | 0.324 | 0.729 | 0.545 | 0.57 | 0.713 | 0.803 | 0.414 | 0.556 | 0.398 | 0.514 | 0.439 | 0.617 | 0.647 | 0.444 | 0.436 | 0.396 |
| PC-3 [JPC-3] | 1.01 | 1.08 | 1.06 | 1.11 | 0.97 | 0.939 | 0.978 | 0.964 | 0.947 | 0.97 |  | 1.17 | 1.15 | 1.24 | 1.22 | 0.936 | 0.893 | 1.02 | 1.05 | 0.604 |
| LXF-289 | 1.01 | 1.01 | 0.963 | 0.961 | 0.626 | 0.977 | 1.01 | 0.681 | 0.896 | 0.72 | 1.03 | 1.1 | 0.823 | 0.95 | 0.963 | 0.192 | 0.23 | 0.279 | 0.274 | 0.167 |
| NCI-H1437 | 0.958 | 0.976 | 1.02 | 1.01 | 0.988 | 1.12 | 1.26 | 0.698 | 0.771 | 0.86 | 0.661 | 0.635 | 0.673 | 0.625 | 0.541 | 0.415 | 0.242 | 0.275 | 0.43 | 0.39 |
| NCI-H838 | 1.03 | 0.991 | 0.953 | 0.92 | 0.841 | 1.07 | 0.879 | 0.7 | 0.837 | 0.851 | 0.873 | 0.743 | 0.582 | 0.718 | 0.709 | 0.287 | 0.291 | 0.297 | 0.274 | 0.284 |
| NCI-H650 | 1.32 | 1.44 | 1.38 | 1.29 | 0.939 | 0.81 | 0.943 | 0.859 | 0.87 | 0.929 | 0.316 | 0.364 | 0.375 | 0.316 | 0.418 | 0.529 | 0.487 | 0.463 | 0.558 | 0.434 |
